From US20230010299A1, “HETEROCYCLIC TRPML1 AGONISTS” (LIBRA THERAPEUTICS, INC., priority 2019, published 2023) come the findings set out here.

Structures are written as SMILES.

Test [1] concerns the target T1, TRPML1 (Homo sapiens, UniProt Q9GZU1).
T1 construct: expressed in transfected cells
Nature of the test: Cellular TRPML1 assay (FLIPR TETRA, GCaMP6f calcium read-out). In kind it is cell-based. Conditions: HEK T-REx/GCaMP6f/TRPML1 cells; Ca2+ response over 300 s, normalized to ML-SA1 50 μM; Ca2+ free or Optimem condition not given; read-out: Ec50 (Activity of TRPML1 agonists). The method, then: Buffers and reagents • PBS (D-PBS without calcium and magnesium; EuroClone) • Trypsin (Trypsin 0.05%, EDTA 0.02% in PBS; EuroClone) • DMSO (Sigma) • Ca^2+ free Tyrode's buffer: in-house solution (130 mM NaCl, 5 mM KCl, 1 mM MgCl2, 5 mM NaHCO3, 20 mM HEPES in water at pH 7.4; sterile filtered). • Opti-MEM (Gibco) • Agonist: ML-SA1 (Sigma); stock: 60 mM in DMSO, stored at −20° C. • Blocker: ML-SI3 (in house synthesis); stock: 20 mM in DMSO, stored at −20° C.
The final clone for the TRPML1 assay is HEK T-REx/GCaMP6f/TRPML1.
GCaMP6f is a genetically encoded calcium indicator that is stably expressed in this cell line and used as a fluorescent read-out.
Experiments are performed in 384 MTP format. Cells are seeded at 15000 cells/well either in 25 μl/well of growth medium or in 20 μl/well of Optimem+0.5% FBS without selection antibiotics. Twenty-four hours later, cells are assayed for the response to various compounds using the Ca^2+ sensitive GCaMP6f protein stably expressed in the cells as readout.
The experiment is performed in a 384-well format according to the following procedures for either Ca^2+ free or Optimem conditions: • Ca^2+ free condition (in absence of extracellular Ca^2+): • 24 h after seeding, pre-incubate the cells at room temperature for about 10′. • Then remove the culture medium and replace it with 20 μL of Ca^2+ free Tyrode's buffer. • Start the experiment at the FLIPR^TETRA by injecting 10 μL/w of 3× concentrated test compounds and controls in Ca^2+ free Tyrode's buffer. Monitor the kinetic response over a period of 300 seconds. • Final DMSO concentration: 0.5% • Optimem condition (in presence of extracellular Ca^2+): • 24 h after seeding, pre-incubate the cells at room temperature for about 10′. • Start the experiment at the FLIPR^TETRA by injecting 10 μL/w of 3× concentrated test compounds and controls in Ca^2+ free Tyrode's buffer. Monitor the kinetic response over a period of 300 seconds. • Final DMSO concentration: 0.5%
Data from FLIPR^TETRA measurements are analyzed with the Genedata Screener® software.
Stimulator controls (Col 2): injection of ML-SA1 EC100 (50 μM) in alternated wells positions
Neutral controls (Col 2): injection of 0 mM Ca^2+ free Tyrode's buffer in alternated wells positions.
Test wells (Col 3-22): test compounds dose response curve from either 100 μM with 1:2 dilution steps or from 50 μM with 1:3.16 dilution steps.

In test [2] the target is T1, TRPML1. Nature of the test: TRPML1 automated patch-clamp (QPatch 16X). The test is classed as cell-based. As to conditions: HEK T-REx/GcaMP6f/TRPML1 cells, current with compound/current in vehicle, extracellular pH 4.6. The procedure: TRPML1—Automated Patch-Clamp
HEK T-REx/GcaMP6f/TRPML1 cells were cultured in DMEM High Glucose (Lonza BioWhittaker cat. BE12-604F/U1; 500 mL) supplemented with Fetal Bovine Serum TET-FREE (Euroclone cat. EC S0182L; 50 mL, Penicillin-Streptomycin (BioWhittaker, cat. DE17-602E; 5 mL of 100× Solution), G418 (Sigma, cat. G8168; 0.25 mg/ml) and Zeocyn (InvivoGen, cat. ant-zn-1; 50 μg/ml).
HEK T-REx/GcaMP6f/TRPML1 cells were seeded 48 or 72 hours before experiment, at a concentration of 8*10^6/4*10^6 cells onto a T225 flask. Just before the experiments, cells were washed twice with D-PBS w/o Ca^2+/Mg^2+ (Euroclone cat. ECB4004L) and detached from the flask with trypsin-EDTA (Sigma cat. T4174; diluted 1/10). Cells were then re-suspended in the suspension solution: 25 mL EX-CELL ACF CHO medium(Sigma cat. C5467); 0.625 mL HEPES (Sigma cat. H0887); 0.25 mL of 100× Penicillin/Streptomycin (Euroclone cat. ECB3001D), 0.1 mL of Soybean Trypsin Inhibitor 10 mg/mL (Sigma cat. T6522) and placed on the QPatch 16X.
Dilution from stock were prepared just before the experiments in the extracellular solution (0.25% final DMSO concentration). DMSO solution was obtained from AppliChem (cat. A3672)
Patch Clamp Solutions: • Intracellular solution (mM): 120 CsMeSO3, 4 NaCl, 2 MgCl2, 10 EGTA, 20 HEPES, 2 Mg-ATP (pH 7.2 with CsOH). • Extracellular solution (mM): 140 NaGluconate, 5 KCl, 1 MgCl2, 2 CaCl2), 10 Glucose, 10 MES (pH 4.6 with HCl).
Patch Clamp Analysis—QPatch 16X
For the voltage clamp experiments on TRPML1, data were sampled at 5 KHz. After establishment of the seal and the passage in the whole cell configuration, the cells were held at −20 mV and the TRPML1 current was evoked using the voltage protocol illustrated in FIG. 2, applied every 5 sec. (50 ms at −20 mV; 20 ms at −120 mV, 1000 ms ramp from −120 to […]; 20 ms at +40 mV, and back to −20 mV); in the absence (vehicle period, i.e. 0.25% DMSO) and in the presence of increasing concentrations (3) of the compound under investigation.
Agonists: For data collection, the Sophion proprietary software was used and the analysis was performed off-line using Excel and GraphPad Prism (V 8.00). Results are reported in Table 6, expressed as TRPML1 current fold increase evoked by the compound under investigation (i.e. current in the presence of the compound/current in vehicle).

T1 sequence (Q9GZU1 whole entry): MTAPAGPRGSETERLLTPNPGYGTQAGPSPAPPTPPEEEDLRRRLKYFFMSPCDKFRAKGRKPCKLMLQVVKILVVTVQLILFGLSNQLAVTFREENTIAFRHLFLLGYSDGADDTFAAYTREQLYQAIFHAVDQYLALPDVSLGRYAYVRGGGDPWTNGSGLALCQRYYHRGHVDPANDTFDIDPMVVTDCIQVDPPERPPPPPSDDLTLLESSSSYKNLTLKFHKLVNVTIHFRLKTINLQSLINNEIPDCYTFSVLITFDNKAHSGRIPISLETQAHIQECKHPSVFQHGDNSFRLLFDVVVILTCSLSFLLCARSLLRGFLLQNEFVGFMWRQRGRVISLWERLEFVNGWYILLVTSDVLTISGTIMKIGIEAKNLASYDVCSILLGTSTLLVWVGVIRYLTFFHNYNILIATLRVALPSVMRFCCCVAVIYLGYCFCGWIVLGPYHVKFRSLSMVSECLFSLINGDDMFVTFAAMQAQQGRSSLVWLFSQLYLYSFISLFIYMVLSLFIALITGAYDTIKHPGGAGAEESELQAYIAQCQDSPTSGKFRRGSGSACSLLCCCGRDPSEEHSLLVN

In the case of `CCCN(C)C(=O)N1CCN(c2ccccc2NS(=O)(=O)c2ccc(S(=O)(=O)N(C)C)cc2)CC1` [Example 82, 4-{2-[4-(dimethylsulfamoyl)benzenesulfonamido]phenyl}-N-methyl-N-propylpiperazine-1-carboxamide], the EC50 at TRPML1 [1] turned out to be 5.9 µM. The results for the “Qpatch Assay TRPML1 agonism Current fold increase Mean ± SEM (n)” value at TRPML1 [2] (0.3 μM compound), at TRPML1 [2] (3.0 μM compound) and on TRPML1 [2] (30 μM compound) were 2.5 ± 1.3 (3), 12.5 ± 8.6 (3) and 138 ± 55.7 (3), respectively.
On the same counts, the results for `COc1ccc(S(=O)(=O)Nc2ccccc2N2CCC(C(=O)OC(C)(C)C)CC2)cc1` [Example 91] are 3.3 µM, 3.1 ± 1.2 (3), 21.7 ± 7.9 (3) and 58.8 ± 16.6 (3).
As for `CN(C)S(=O)(=O)c1ccc(S(=O)(=O)Nc2ccccc2N2CCN(C(=O)c3ccccc3)CC2)cc1` [Example 73, N4-[2-(4-benzoylpiperazin-1-yl)phenyl]-N1,N1-dimethylbenzene-1,4-disulfonamide], on TRPML1 [1], the concentration for a half-maximal effect (EC50) amounted to 6.4 µM. Further, the results for the “Qpatch Assay TRPML1 agonism Current fold increase Mean ± SEM (n)” value on TRPML1 [2] (0.3 μM compound), on TRPML1 [2] (3.0 μM compound) and at TRPML1 [2] (30 μM compound) were −0.070, −0.31 and 11.3, respectively.
As to `CN(C)S(=O)(=O)c1ccc(S(=O)(=O)Nc2ccccc2C2CCN(C(=O)OC(C)(C)C)CC2)cc1` [Example 78, f-butyl 4-{2-[4-(dimethylsulfamoyl)benzenesulfonamido]phenyl} piperidine-1-carboxylate], the EC50 at TRPML1 [1] came to 6.9 µM. Also, the “Qpatch Assay TRPML1 agonism Current fold increase Mean ± SEM (n)” value on TRPML1 [2] (0.3 μM compound) is on record as 0.68 ± 0.34 (3); on TRPML1 [2] (3.0 μM compound), 16.5 ± 9.1 (3); at TRPML1 [2] (30 μM compound), 166 ± 75.7 (3).
Regarding `CN(C)S(=O)(=O)c1ccc(S(=O)(=O)Nc2ccccc2N2CCC(Oc3ccccc3)CC2)cc1` [Example 24, N1,N1-dimethyl-N4-[2-(4-phenoxypiperidin-1-yl)phenyl]benzene-1,4-disulfonamide], the concentration for a half-maximal effect (EC50) at TRPML1 [1] was determined as 2.1 µM. Moreover, the results for the “Qpatch Assay TRPML1 agonism Current fold increase Mean ± SEM (n)” value on TRPML1 [2] (0.3 μM compound), at TRPML1 [2] (3.0 μM compound) and at TRPML1 [2] (30 μM compound) were 4.6 ± 1.8 (4), 168.8 ± 96.1 (4) and 687.7 (1), respectively.
With `CN(C)S(=O)(=O)c1ccc(S(=O)(=O)Nc2ccccc2N2CCC(OCc3ccccc3)CC2)cc1` [Example 25, N4-{2-[4-(benzyloxy)piperidin-1-yl]phenyl}-N1,N1-dimethylbenzene-1,4-disulfonamide], the EC50 at TRPML1 [1] is 1.8 µM. The figures for the “Qpatch Assay TRPML1 agonism Current fold increase Mean ± SEM (n)” value at TRPML1 [2] (0.3 μM compound), on TRPML1 [2] (3.0 μM compound) and on TRPML1 [2] (30 μM compound) were 3.5 ± 1.8 (3), 177.1 ± 38.2 (3) and 1013.8 (1), respectively.
For `CCOC(=O)N1CCN(c2ccccc2NS(=O)(=O)c2ccc(S(=O)(=O)N(C)C)cc2)CC1` [Example 70, ethyl4-{2-[4-(dimethylsulfamoyl)benzenesulfonamido]phenyl}piperazine-1-carboxylate], the half-maximal effective concentration (EC50) at TRPML1 [1] was found to be 3.2 µM. In addition, the entries for the “Qpatch Assay TRPML1 agonism Current fold increase Mean ± SEM (n)” value on TRPML1 [2] (0.3 μM compound), on TRPML1 [2] (3.0 μM compound) and at TRPML1 [2] (30 μM compound) were 0.5 ± 0.3 (3), 22.5 ± 10.6 (3) and 656.7 ± 150.5 (3), respectively.
Taken in the same sequence, the figures for `CN(C)S(=O)(=O)c1ccc(S(=O)(=O)NC2CCCCC2N2CCC(Oc3ccccc3)CC2)cc1` (single isomer, unassigned) [Example 63, N1,N1-dimethyl-N4-[2-(4-phenoxypiperidin-1-yl)cyclohexyl]benzene-1,4-disulfonamide] were 1.7 µM, 0.042 ± 0.153 (2), 0.86 ± 0.60 (2) and 4.3 ± 0.9 (2).
`CC(C)CNC(=O)C1CCN(c2ccccc2NS(=O)(=O)c2ccc(S(=O)(=O)N(C)C)cc2)CC1` [Example 88, 1-{2-[4-(dimethylsulfamoyl)benzenesulfonamido]phenyl}-N-(2-methylpropyl)piperidine-4-carboxamide]: the concentration for a half-maximal effect (EC50) at TRPML1 [1] is 6.5 µM. Also, the “Qpatch Assay TRPML1 agonism Current fold increase Mean ± SEM (n)” value is −0.066 ± 0.080 (3) at TRPML1 [2] (0.3 μM compound), 3.9 ± 2.5 (3) at TRPML1 [2] (3.0 μM compound) and 125 ± 75.3 (3) on TRPML1 [2] (30 μM compound).
As to `CN(C)S(=O)(=O)c1ccc(S(=O)(=O)Nc2ccccc2N2CC3CCC2C3)cc1` (centres unmarked) [Example 4, N4-(2-{2-azabicyclo[2.2.1]heptan-2-yl}phenyl)-N1,N1-dimethylbenzene-1,4-disulfonamide], at TRPML1 [1], the EC50 was 8.4 µM.
On the same count and under the same terms, under `CN(C)S(=O)(=O)c1ccc(S(=O)(=O)Nc2ccccc2N2CCN(C(=O)c3cccs3)CC2)cc1` [Example 79, N1,N1-dimethyl-N4-{2-[4-(thiophene-2-carbonyl)piperazin-1-yl]phenyl}benzene-1,4-disulfonamide] stands 8.8 µM.
On the same count and under the same terms, under `COC1CCCN(c2ccccc2NS(=O)(=O)c2ccc(S(=O)(=O)N(C)C)cc2)CC1` (single isomer, unassigned) [Example 41, N1-(2-(4-methoxyazepan-1-yl)phenyl)-N4,N4-dimethylbenzene-1,4-disulfonamide] stands 4.4 µM; under `CN(C)S(=O)(=O)c1ccc(S(=O)(=O)Nc2ccccc2N2CCC(O)CC2)cc1` [Example 38, N1-(2-(4-hydroxypiperidin-1-yl)phenyl)-N4,N4-dimethylbenzene-1,4-disulfonamide], 34.5 µM; under `CN(C)S(=O)(=O)c1ccc(S(=O)(=O)Nc2ccccc2N2CCC(Oc3cccnc3)CC2)cc1` [Example 86, N1,N1-dimethyl-N4-{2-[4-(pyridin-3-yloxy)piperidin-1-yl]phenyl}benzene-1,4-disulfonamide], 5.7 µM.
